According to the supplement of paper PMC10307832:

Assays:
Test in all cases: relative viability (nuclei count vs DMSO), 5 days (fraction); higher = more cells survive
VE-821 + Foretinib = compound: CS(=O)(=O)c1ccc(-c2cnc(N)c(C(=O)Nc3ccccc3)n2)cc1 [VE-821] + COc1cc2c(Oc3ccc(NC(=O)C4(C(=O)Nc5ccc(F)cc5)CC4)cc3F)ccnc2cc1OCCCN1CCOCC1 [Foretinib] (partner 0.25 µM)
Method in brief: (§1)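 Lung cancer cell lines, seeded in 1536-well plates, were treated the following day by pin tool with a single drug or with five library-drug doses (not always all listed) in √10 steps on top of a fixed anchor-drug dose. Cells were fixed and nuclei stained in one step after 5 days, and nuclei were counted. Relative viability is the nuclei count for treated wells divided by that for vehicle wells, reported as medians of duplicate plates.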

VE-821 + Linsitinib = compound: CS(=O)(=O)c1ccc(-c2cnc(N)c(C(=O)Nc3ccccc3)n2)cc1 [VE-821] + C[C@]1(O)C[C@@H](c2nc(-c3ccc4ccc(-c5ccccc5)nc4c3)c3c(N)nccn32)C1 [Linsitinib] (partner 1 µM)
Method in brief: as §1

Ruxolitinib + Linsitinib = compound: N#CC[C@H](C1CCCC1)n1cc(-c2ncnc3[nH]ccc23)cn1 [Ruxolitinib] + C[C@]1(O)C[C@@H](c2nc(-c3ccc4ccc(-c5ccccc5)nc4c3)c3c(N)nccn32)C1 [Linsitinib] (partner 1 µM)
Method in brief: as §1

Ruxolitinib + Tozasertib = compound: N#CC[C@H](C1CCCC1)n1cc(-c2ncnc3[nH]ccc23)cn1 [Ruxolitinib] + Cc1cc(Nc2cc(N3CCN(C)CC3)nc(Sc3ccc(NC(=O)C4CC4)cc3)n2)n[nH]1 [Tozasertib] (partner 0.1 µM)
Method in brief: as §1

Row | Cell Line | relative viability (VE-821 + Foretinib; first compound 0.08 µM) | relative viability (VE-821 + Foretinib; first compound 0.253 µM) | relative viability (VE-821 + Foretinib; first compound 0.8 µM) | relative viability (VE-821 + Foretinib; first compound 2.53 µM) | relative viability (VE-821 + Foretinib; first compound 8 µM) | relative viability (VE-821 + Linsitinib; first compound 0.08 µM) | relative viability (VE-821 + Linsitinib; first compound 0.253 µM) | relative viability (VE-821 + Linsitinib; first compound 0.8 µM) | relative viability (VE-821 + Linsitinib; first compound 2.53 µM) | relative viability (VE-821 + Linsitinib; first compound 8 µM) | relative viability (Ruxolitinib + Linsitinib; first compound 0.08 µM) | relative viability (Ruxolitinib + Linsitinib; first compound 0.253 µM) | relative viability (Ruxolitinib + Linsitinib; first compound 0.8 µM) | relative viability (Ruxolitinib + Linsitinib; first compound 2.53 µM) | relative viability (Ruxolitinib + Linsitinib; first compound 8 µM) | relative viability (Ruxolitinib + Tozasertib; first compound 0.08 µM) | relative viability (Ruxolitinib + Tozasertib; first compound 0.253 µM) | relative viability (Ruxolitinib + Tozasertib; first compound 0.8 µM) | relative viability (Ruxolitinib + Tozasertib; first compound 2.53 µM) | relative viability (Ruxolitinib + Tozasertib; first compound 8 µM)
1 | NCI-H1437 | 1.3 | 1.25 | 1.16 | 1.34 | 1.24 | 1.2 | 1.08 | 0.927 | 0.997 | 0.558 | 0.983 | 0.994 | 1.02 | 0.966 | 0.653 | 0.457 | 0.39 | 0.406 | 0.413 | 0.422
2 | NCI-H1651 | 0.72 | 0.838 | 0.662 | 0.885 | 1.02 | 1.01 | 0.999 | 0.847 | 0.986 | 0.737 | 0.949 | 0.864 | 1 | 0.929 | 0.964 | 0.714 | 0.637 | 0.64 | 0.573 | 0.682
3 | NCI-H1666 | 0.97 | 1.02 | 1.04 | 1.03 | 0.783 | 0.765 | 0.884 | 0.777 | 0.857 | 0.553 | 0.739 | 0.949 | 0.933 | 0.776 | 0.902 | 0.596 | 0.579 | 0.587 | 0.585 | 0.521
4 | NCI-H1734 | 0.972 | 0.854 | 0.805 | 1.02 | 0.722 | 0.97 | 0.917 | 0.737 | 0.969 | 0.617 | 0.852 | 0.752 | 0.794 | 0.8 | 0.821 | 0.332 | 0.25 | 0.281 | 0.209 | 0.223
5 | NCI-H1755 | 0.956 | 0.855 | 0.845 | 0.92 | 0.765 | 1.05 | 0.978 | 0.795 | 0.958 | 0.898 | 1 | 0.961 | 0.971 | 0.9 | 0.817 | 0.561 | 0.525 | 0.622 | 0.616 | 0.557
6 | NCI-H1793 | 0.749 | 0.669 | 0.589 | 0.85 | 0.55 | 1.01 | 0.846 | 0.459 | 1.01 | 0.698 | 0.632 | 0.92 | 1.04 | 1.12 | 0.968 | 0.343 | 0.368 | 0.48 | 0.492 | 0.309
7 | NCI-H1915 | 1.15 | 1.08 | 1.03 | 1.09 | 0.912 | 1.09 | 1.16 | 1.13 | 1.18 | 0.972 | 1.12 | 1.05 | 1.05 | 1.04 | 1.03 | 0.462 | 0.434 | 0.464 | 0.398 | 0.419
8 | NCI-H1944 | 0.917 | 0.84 | 0.694 | 0.862 | 0.487 | 1.26 | 1.16 | 0.832 | 1.3 | 0.663 | 1.23 | 1.12 | 1.28 | 1.15 | 1.21 | 0.248 | 0.263 | 0.24 | 0.292 | 0.266
9 | NCI-H1975 | 0.977 | 0.89 | – | 0.82 | 0.709 | 0.932 | 0.92 | 0.876 | 0.862 | 0.658 | 1.03 | 1.03 | 1.05 | 0.71 | 0.587 | 0.724 | 0.78 | 0.682 | 0.767 | 0.389
10 | NCI-H1993 | 0.84 | 0.736 | 0.595 | 0.737 | 0.724 | 0.729 | 0.668 | 0.764 | 0.697 | 0.595 | 0.785 | 0.783 | 0.779 | 0.801 | 0.796 | 0.585 | 0.618 | 0.643 | 0.631 | 0.551
11 | NCI-H2009 | 1.34 | 1.26 | 1.1 | 1.28 | 1.23 | 1.23 | 1.19 | 1.12 | 1.22 | 1.23 | 1.21 | 1.23 | 1.28 | 1.02 | 0.904 | 0.781 | 0.754 | 0.853 | 0.717 | 0.578
12 | NCI-H2023 | 0.998 | 0.785 | 0.511 | 0.383 | 0.343 | 0.779 | 0.642 | 0.329 | 0.539 | 0.225 | 0.689 | 0.589 | 0.722 | 0.683 | 0.672 | 0.305 | 0.352 | 0.506 | 0.356 | 0.302
13 | NCI-H2085 | 1.05 | 0.915 | 0.863 | 1.01 | 0.812 | 0.979 | 0.891 | 0.847 | 0.941 | 0.926 | 0.875 | 0.888 | 1.01 | 0.836 | 0.685 | 0.882 | 0.765 | 0.886 | 0.77 | 0.688
14 | NCI-H2087 | 1.12 | 0.982 | 1.22 | 1.33 | 1 | 1.18 | 0.873 | 1.23 | 1.05 | 0.864 | 0.861 | 1.08 | 0.983 | 0.692 | 0.638 | 0.256 | 0.229 | 0.24 | 0.276 | 0.299
15 | NCI-H2126 | 1.38 | 1.1 | 1.21 | 1.1 | 0.764 | 0.805 | 0.652 | 0.589 | 0.715 | 0.627 | 0.701 | 0.725 | 0.731 | 0.744 | 0.702 | 0.864 | 0.848 | 1.1 | 0.975 | 0.838
16 | NCI-H2228 | 0.945 | 0.849 | 0.946 | 0.749 | 0.567 | 0.955 | 0.866 | 0.635 | 0.758 | 0.395 | 0.796 | 0.686 | 0.85 | 0.626 | 0.559 | 0.32 | 0.33 | 0.257 | 0.314 | 0.208
